In patent publication US9266878B2, “Phosphatidylinositol 3-kinase inhibitors” (Gilead Calistoga LLC, priority 2012, dated 2016):

How the values were obtained:
Assay in all cases: Enzymatic activity of PI3K isoforms, TR-FRET assay (PIP3 formation)
Type in all cases: biochemical
PI3Kα = PI3Kα (Homo sapiens (Human), UniProt P42336)
How it was run: (§1)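 Heterodimeric recombinant class I PI3K; PIP3 product displaces labeled PIP3 from GRP-1 PH domain, lowering TR-FRET. Reaction 30 min at 25° C, stopped with 10 mM EDTA, 10 nM labeled-PIP3, 35 nM Eu-GRP-1. Read Ex 340 nm, Em 615/665 nm; IC50 in nM.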

PI3Kδ = PI3Kδ (Homo sapiens (Human), UniProt O00329)
How it was run: as §1

PI3Kβ = PI3Kβ (Homo sapiens (Human), UniProt P42338)
Chain of PI3Kβ (P42338 whole entry, the tested form may be a part): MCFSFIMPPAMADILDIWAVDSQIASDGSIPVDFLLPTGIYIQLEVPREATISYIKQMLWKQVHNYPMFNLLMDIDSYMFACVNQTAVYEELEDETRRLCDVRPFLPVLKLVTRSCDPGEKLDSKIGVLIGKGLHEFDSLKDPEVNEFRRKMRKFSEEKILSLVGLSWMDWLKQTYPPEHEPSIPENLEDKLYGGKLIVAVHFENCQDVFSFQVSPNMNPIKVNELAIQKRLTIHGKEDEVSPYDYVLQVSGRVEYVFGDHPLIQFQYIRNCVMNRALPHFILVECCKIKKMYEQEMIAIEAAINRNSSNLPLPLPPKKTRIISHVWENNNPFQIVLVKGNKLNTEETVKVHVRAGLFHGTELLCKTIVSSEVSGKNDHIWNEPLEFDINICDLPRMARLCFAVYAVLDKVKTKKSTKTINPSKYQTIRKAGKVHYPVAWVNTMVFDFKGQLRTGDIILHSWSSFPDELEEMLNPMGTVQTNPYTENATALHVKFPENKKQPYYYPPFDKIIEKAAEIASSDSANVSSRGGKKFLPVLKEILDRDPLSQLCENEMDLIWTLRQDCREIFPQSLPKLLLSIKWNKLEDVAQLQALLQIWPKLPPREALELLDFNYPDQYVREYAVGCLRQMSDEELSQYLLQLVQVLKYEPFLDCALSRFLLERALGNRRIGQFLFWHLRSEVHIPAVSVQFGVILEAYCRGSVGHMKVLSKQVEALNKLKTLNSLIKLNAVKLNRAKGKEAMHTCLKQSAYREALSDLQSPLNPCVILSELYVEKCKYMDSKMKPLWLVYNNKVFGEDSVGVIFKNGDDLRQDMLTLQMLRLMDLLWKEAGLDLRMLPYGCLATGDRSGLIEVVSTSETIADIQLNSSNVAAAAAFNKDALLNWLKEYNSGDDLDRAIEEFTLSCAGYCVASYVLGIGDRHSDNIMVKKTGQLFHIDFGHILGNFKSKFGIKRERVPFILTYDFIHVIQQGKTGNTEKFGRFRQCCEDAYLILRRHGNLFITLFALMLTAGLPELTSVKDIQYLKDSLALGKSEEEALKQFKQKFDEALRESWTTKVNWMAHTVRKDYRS
Chain of PI3Kβ (P27986 whole entry partner, the tested form may be a part): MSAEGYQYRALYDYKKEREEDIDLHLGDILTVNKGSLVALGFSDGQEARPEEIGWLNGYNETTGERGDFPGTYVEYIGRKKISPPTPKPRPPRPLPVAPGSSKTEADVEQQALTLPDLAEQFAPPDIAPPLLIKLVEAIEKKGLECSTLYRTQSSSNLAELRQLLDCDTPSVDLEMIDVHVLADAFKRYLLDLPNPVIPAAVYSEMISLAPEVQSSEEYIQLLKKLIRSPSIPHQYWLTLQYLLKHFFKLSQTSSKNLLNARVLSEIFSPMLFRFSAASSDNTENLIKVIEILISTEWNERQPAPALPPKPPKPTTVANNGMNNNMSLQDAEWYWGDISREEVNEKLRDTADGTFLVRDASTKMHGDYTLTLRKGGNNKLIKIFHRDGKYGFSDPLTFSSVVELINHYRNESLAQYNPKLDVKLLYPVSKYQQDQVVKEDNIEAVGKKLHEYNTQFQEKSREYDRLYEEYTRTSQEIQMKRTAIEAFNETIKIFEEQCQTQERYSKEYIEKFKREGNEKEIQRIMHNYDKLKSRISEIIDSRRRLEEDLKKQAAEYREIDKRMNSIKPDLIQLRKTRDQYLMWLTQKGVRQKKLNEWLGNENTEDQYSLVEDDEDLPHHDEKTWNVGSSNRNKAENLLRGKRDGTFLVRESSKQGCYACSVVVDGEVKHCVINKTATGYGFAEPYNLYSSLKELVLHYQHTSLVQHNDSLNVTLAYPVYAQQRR
How it was run: (§2)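 Recombinant heterodimeric class I PI3K enzymes were assayed by TR-FRET. PIP3 product displaces fluorescently labelled PIP3 from the GRP-1 PH domain, lowering the signal; IC50 values are given in nM.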

PI3Kγ = PI3Kγ (Homo sapiens (Human), UniProt P48736)
Chain of PI3Kγ (P48736 whole entry): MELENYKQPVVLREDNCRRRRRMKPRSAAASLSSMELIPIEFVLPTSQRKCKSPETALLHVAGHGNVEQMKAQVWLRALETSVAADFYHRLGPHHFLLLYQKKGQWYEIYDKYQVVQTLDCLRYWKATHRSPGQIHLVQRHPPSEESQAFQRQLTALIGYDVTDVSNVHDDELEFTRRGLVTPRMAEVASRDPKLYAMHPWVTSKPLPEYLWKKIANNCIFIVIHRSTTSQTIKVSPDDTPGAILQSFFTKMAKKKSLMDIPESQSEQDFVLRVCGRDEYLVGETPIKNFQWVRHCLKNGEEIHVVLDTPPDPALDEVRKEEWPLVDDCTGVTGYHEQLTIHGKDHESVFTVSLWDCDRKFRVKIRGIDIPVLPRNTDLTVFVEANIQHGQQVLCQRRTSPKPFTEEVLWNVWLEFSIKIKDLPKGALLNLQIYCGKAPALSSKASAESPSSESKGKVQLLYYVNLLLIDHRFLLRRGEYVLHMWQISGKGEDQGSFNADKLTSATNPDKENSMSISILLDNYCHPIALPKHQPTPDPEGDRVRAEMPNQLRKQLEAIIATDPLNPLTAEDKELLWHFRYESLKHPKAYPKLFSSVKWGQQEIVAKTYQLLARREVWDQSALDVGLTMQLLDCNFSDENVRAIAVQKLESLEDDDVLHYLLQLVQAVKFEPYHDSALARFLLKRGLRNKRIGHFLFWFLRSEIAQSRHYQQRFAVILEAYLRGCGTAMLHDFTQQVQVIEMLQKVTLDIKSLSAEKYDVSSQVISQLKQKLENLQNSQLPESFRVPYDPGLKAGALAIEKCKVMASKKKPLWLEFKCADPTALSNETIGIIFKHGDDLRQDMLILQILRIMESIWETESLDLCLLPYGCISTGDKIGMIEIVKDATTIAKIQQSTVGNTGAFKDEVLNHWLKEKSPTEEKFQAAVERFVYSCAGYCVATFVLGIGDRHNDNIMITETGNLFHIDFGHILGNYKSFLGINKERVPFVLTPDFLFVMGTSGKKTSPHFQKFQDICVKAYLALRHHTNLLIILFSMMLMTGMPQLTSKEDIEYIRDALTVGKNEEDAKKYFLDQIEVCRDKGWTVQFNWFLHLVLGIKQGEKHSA
Chain of PI3Kγ (Q8WYR1 whole entry partner): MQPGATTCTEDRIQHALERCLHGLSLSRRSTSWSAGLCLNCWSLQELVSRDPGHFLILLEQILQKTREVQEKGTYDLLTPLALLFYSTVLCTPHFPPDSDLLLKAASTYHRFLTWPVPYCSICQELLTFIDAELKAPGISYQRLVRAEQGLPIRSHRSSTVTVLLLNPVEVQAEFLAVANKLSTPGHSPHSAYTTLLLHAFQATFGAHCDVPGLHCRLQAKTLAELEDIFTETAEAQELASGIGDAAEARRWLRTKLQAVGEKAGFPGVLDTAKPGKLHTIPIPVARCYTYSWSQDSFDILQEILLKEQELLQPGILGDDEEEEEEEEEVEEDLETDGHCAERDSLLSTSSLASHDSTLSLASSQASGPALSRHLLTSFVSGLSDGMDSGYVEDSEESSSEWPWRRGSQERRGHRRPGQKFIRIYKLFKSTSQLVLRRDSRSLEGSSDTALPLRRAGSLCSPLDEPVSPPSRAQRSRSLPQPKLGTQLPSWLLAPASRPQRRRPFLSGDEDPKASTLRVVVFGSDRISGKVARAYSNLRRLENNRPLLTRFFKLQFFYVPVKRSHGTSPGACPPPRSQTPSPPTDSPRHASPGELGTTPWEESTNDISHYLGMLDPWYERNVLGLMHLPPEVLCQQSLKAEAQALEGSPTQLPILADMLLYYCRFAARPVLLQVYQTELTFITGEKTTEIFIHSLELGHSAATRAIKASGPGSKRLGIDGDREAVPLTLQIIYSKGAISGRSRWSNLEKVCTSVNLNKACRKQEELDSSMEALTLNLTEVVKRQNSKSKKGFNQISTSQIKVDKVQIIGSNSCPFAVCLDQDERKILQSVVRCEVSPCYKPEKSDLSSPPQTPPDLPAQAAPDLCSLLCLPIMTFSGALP
How it was run: as §2

Chain of PI3Kα (P42336 whole entry, the tested form may be a part): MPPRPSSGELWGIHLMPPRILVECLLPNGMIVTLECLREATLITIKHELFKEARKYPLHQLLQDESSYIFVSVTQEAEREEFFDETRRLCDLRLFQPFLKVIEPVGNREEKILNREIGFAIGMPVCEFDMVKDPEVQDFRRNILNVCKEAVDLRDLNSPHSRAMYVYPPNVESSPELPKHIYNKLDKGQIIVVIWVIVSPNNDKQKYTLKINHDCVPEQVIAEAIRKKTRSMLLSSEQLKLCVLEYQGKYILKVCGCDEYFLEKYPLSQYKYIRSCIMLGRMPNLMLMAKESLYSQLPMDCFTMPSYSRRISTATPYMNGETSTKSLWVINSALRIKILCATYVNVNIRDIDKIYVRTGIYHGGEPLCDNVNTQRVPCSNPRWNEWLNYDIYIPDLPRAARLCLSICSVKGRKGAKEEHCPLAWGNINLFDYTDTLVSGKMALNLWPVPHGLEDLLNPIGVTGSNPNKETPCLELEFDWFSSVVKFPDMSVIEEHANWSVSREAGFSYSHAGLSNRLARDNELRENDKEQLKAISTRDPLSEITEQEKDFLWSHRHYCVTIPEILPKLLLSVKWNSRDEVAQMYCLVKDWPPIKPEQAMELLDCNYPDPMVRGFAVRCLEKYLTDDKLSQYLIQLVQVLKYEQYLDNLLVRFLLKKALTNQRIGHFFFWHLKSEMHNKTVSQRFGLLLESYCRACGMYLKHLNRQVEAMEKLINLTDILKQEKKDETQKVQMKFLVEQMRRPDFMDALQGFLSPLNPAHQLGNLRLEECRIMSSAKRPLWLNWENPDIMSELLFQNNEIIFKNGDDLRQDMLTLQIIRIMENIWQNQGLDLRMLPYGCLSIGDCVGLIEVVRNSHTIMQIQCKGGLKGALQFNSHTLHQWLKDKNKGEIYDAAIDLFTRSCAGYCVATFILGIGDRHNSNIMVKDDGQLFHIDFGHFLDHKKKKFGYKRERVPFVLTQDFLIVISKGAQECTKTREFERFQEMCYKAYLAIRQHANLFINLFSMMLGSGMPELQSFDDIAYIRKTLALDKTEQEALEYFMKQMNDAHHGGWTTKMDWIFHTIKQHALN
Chain of PI3Kα (P27986 whole entry partner, the tested form may be a part): as the sequence (P27986 whole entry partner, the tested form may be a part) above

IC50 (PI3Kα; bound given in uM) [µM] | IC50 (PI3Kδ; bound given in nM) [nM] | IC50 (PI3Kβ; bound given in uM) [µM] | IC50 (PI3Kγ; bound given in uM) [µM] | IC50 (PI3Kγ; bound given in nM) [µM] | IC50 (PI3Kα; bound given in nM) [µM] | IC50 (PI3Kβ; bound given in nM) [µM] | IC50 (PI3Kδ; bound given in uM) [nM] | SMILES
> 1 | < 100 | > 1 | > 1 |  |  |  |  | C[C@H](Nc1ncnc(N)c1C#Cc1ccc(F)cn1)c1nc2cccc(F)c2c(=O)n1-c1cc(F)cc(F)c1 [Compound 7a, (S)-2-(1-(6-amino-5-((5-fluoropyridin-2-yl)ethynyl)pyrimidin-4-ylamino)ethyl)-3-(3,5-difluorophenyl)-5-fluoroquinazolin-4(3H)-one]
> 1 | < 100 | > 1 | > 1 |  |  |  |  | C[C@H](Nc1ncnc(N)c1C#Cc1ccc(F)cn1)c1nc2cccc(Cl)c2c(=O)n1-c1cccc(C#N)c1 [Compound 92a, (S)-3-(2-(1-((6-amino-5-((5-fluoropyridin-2-yl)ethynyl)pyrimidin-4-yl)amino)ethyl)-5-chloro-4-oxoquinazolin-3(4H)-yl)benzonitrile]
> 1 | < 100 | > 1 | > 1 |  |  |  |  | C[C@H](Nc1ncnc(N)c1C#Cc1ccc(F)cn1)c1nc2cccc(F)c2c(=O)n1-c1cccc(F)c1 [Compound 99a, (S)-2-(1-((6-amino-5-((5-fluoropyridin-2-yl)ethynyl)pyrimidin-4-yl)amino)ethyl)-5-fluoro-3-(3-fluorophenyl)quinazolin-4(3H)-one]
> 1 | < 100 | > 1 |  | < 0.1 |  |  |  | C[C@H](Nc1ncnc(N)c1C#Cc1ccc(C(F)(F)F)cn1)c1nc2cccc(Cl)c2c(=O)n1-c1ccccc1 [Compound 132a, (S)-2-(1-((6-amino-5-((5-(trifluoromethyl)pyridin-2-yl)ethynyl)pyrimidin-4-yl)amino)ethyl)-5-chloro-3-phenylquinazolin-4(3H)-one]
> 1 | < 100 | > 1 | > 1 |  |  |  |  | C[C@H](Nc1ncnc(N)c1C#Cc1cnccn1)c1nc2cccc(Cl)c2c(=O)n1-c1cc(F)cc(F)c1 [Compound 85a, (S)-2-(1-((6-amino-5-(pyrazin-2-ylethynyl)pyrimidin-4-yl)amino)ethyl)-5-chloro-3-(3,5-difluorophenyl)quinazolin-4(3H)-one]
> 1 | < 100 | > 1 | > 1 |  |  |  |  | C[C@H](Nc1ncnc(N)c1C#Cc1ccc(F)cn1)c1nc2c(F)ccc(F)c2c(=O)n1-c1cc(F)cc(F)c1 [Compound 1a, (S)-2-(1-((6-amino-5-((5-fluoropyridin-2-yl)ethynyl)pyrimidin-4-yl)amino)ethyl)-3-(3,5-difluorophenyl)-5,8-difluoroquinazolin-4(3H)-one]
 | < 100 |  |  | < 0.1 | < 0.1 | < 0.1 |  | CC(=O)c1cccc(C#Cc2c(N)ncnc2N[C@@H](C)c2nc3cccc(Cl)c3c(=O)n2-c2ccccc2)c1 [Compound 161a, (S)-2-(1-((5-((3-acetylphenyl)ethynyl)-6-aminopyrimidin-4-yl)amino)ethyl)-5-chloro-3-phenylquinazolin-4(3H)-one]
> 1 | < 100 | > 1 | > 1 |  |  |  |  | C[C@H](Nc1ncnc(N)c1C#Cc1ccc(F)cn1)c1nc2cccc(F)c2c(=O)n1-c1ccccc1 [Compound 8a, (S)-2-(1-(6-amino-5-((5-fluoropyridin-2-yl)ethynyl)pyrimidin-4-ylamino)ethyl)-5-fluoro-3-phenylquinazolin-4(3H)-one]
> 1 | < 100 | > 1 | > 1 |  |  |  |  | C[C@H](Nc1ncnc(N)c1C#Cc1cnccn1)c1nc2cccc(F)c2c(=O)n1-c1cc(F)cc(F)c1 [Compound 87a, (S)-2-(1-((6-amino-5-(pyrazin-2-ylethynyl)pyrimidin-4-yl)amino)ethyl)-3-(3,5-difluorophenyl)-5-fluoroquinazolin-4(3H)-one]
> 1 | < 100 |  |  | < 0.1 |  | < 0.1 |  | C[C@H](Nc1ncnc(N)c1C#Cc1cc(C(F)F)ccn1)c1nc2cccc(Cl)c2c(=O)n1-c1ccccc1 [Compound 149a, (S)-2-(1-((6-amino-5-((4-(difluoromethyl)pyridin-2-yl)ethynyl)pyrimidin-4-yl)amino)ethyl)-5-chloro-3-phenylquinazolin-4(3H)-one]
> 1 | < 100 | > 1 | > 1 |  |  |  |  | C[C@H](Nc1ncnc(N)c1C#Cc1cnccn1)c1nc2cccc(S(C)(=O)=O)c2c(=O)n1-c1ccccc1 [Compound 113a, (S)-2-(1-((6-amino-5-(pyrazin-2-ylethynyl)pyrimidin-4-yl)amino)ethyl)-5-(methylsulfonyl)-3-phenylquinazolin-4(3H)-one]
> 1 | < 100 | > 1 | > 1 |  |  |  |  | C[C@H](Nc1ncnc(N)c1C#Cc1ccc(F)cn1)c1nc2ccc(F)cc2c(=O)n1-c1cccc(C#N)c1 [Compound 94a, (S)-3-(2-(1-((6-amino-5-((5-fluoropyridin-2-yl)ethynyl)pyrimidin-4-yl)amino)ethyl)-6-fluoro-4-oxoquinazolin-3(4H)-yl)benzonitrile]
> 1 | < 100 | > 1 | > 1 |  |  |  |  | Cc1cccc2nc([C@H](C)Nc3ncnc(N)c3C#Cc3cnccn3)n(-c3cncc(F)c3)c(=O)c12 [Compound 120a, (S)-2-(1-((6-amino-5-(pyrazin-2-ylethynyl)pyrimidin-4-yl)amino)ethyl)-3-(5-fluoropyridin-3-yl)-5-methylquinazolin-4(3H)-one]
> 1 | < 100 | > 1 | > 1 |  |  |  |  | C[C@H](Nc1ncnc(N)c1C#Cc1cnccn1)c1nc2cccc(Cl)c2c(=O)n1-c1cccc(C#N)c1 [Compound 93a, (S)-3-(2-(1-((6-amino-5-(pyrazin-2-ylethynyl)pyrimidin-4-yl)amino)ethyl)-5-chloro-4-oxoquinazolin-3(4H)-yl)benzonitrile]
> 1 |  | > 1 | > 1 |  |  |  | > 1000 | C[C@H](Nc1ncnc(N)c1C#Cc1ncccc1CO)c1nc2cccc(Cl)c2c(=O)n1-c1ccccc1 [Compound 163a, (S)-2-(1-((6-amino-5-((3-(hydroxymethyl)pyridin-2-yl)ethynyl)pyrimidin-4-yl)amino)ethyl)-5-chloro-3-phenylquinazolin-4(3H)-one]
 | < 100 |  |  | < 0.1 | < 0.1 | < 0.1 |  | C[C@H](Nc1ncnc(N)c1C#Cc1ccc(N)cn1)c1nc2cccc(Cl)c2c(=O)n1-c1ccccc1 [Compound 35a, (S)-2-(1-(6-amino-5-((5-aminopyridin-2-yl)ethynyl)pyrimidin-4-ylamino)ethyl)-5-chloro-3-phenylquinazolin-4(3H)-one]
> 1 | < 100 | > 1 | > 1 |  |  |  |  | C[C@H](Nc1ncnc(N)c1C#Cc1ccc(F)cn1)c1nc2c(Cl)cccc2c(=O)n1-c1ccccc1 [Compound 5a, (S)-2-(1-(6-amino-5-((5-fluoropyridin-2-yl)ethynyl)pyrimidin-4-ylamino)ethyl)-8-chloro-3-phenylquinazolin-4(3H)-one]
> 1 | < 100 | > 1 | > 1 |  |  |  |  | C[C@H](Nc1ncnc(N)c1C#Cc1cnccn1)c1nc2cccc(C#N)c2c(=O)n1-c1ccccc1 [Compound 55a, (S)-2-(1-((6-amino-5-(pyrazin-2-ylethynyl)pyrimidin-4-yl)amino)ethyl)-4-oxo-3-phenyl-3,4-dihydroquinazoline-5-carbonitrile]
> 1 | < 100 | > 1 | > 1 |  |  |  |  | Cc1cccc2nc([C@H](C)Nc3ncnc(N)c3C#Cc3ncccn3)n(-c3cc(F)cc(F)c3)c(=O)c12 [Compound 105a, (S)-2-(1-((6-amino-5-(pyrimidin-2-ylethynyl)pyrimidin-4-yl)amino)ethyl)-3-(3,5-difluorophenyl)-5-methylquinazolin-4(3H)-one]
> 1 | < 100 | > 1 | > 1 |  |  |  |  | COc1cc(F)cc(C#Cc2c(N)ncnc2NC(C)c2nc3c(F)ccc(F)c3c(=O)n2-c2ccccc2)c1 (centres unmarked) [Compound 63a, 2-(1-((6-amino-5-((3-fluoro-5-methoxyphenyl)ethynyl)pyrimidin-4-yl)amino)ethyl)-5,8-difluoro-3-phenylquinazolin-4(3H)-one]
> 1 | < 100 | > 1 | > 1 |  |  |  |  | C[C@H](Nc1ncnc(N)c1C#Cc1cccc(CN)n1)c1nc2cccc(Cl)c2c(=O)n1-c1ccccc1 [Compound 159a, (S)-2-(1-((6-amino-5-((6-(aminomethyl)pyridin-2-yl)ethynyl)pyrimidin-4-yl)amino)ethyl)-5-chloro-3-phenylquinazolin-4(3H)-one]
> 1 | < 100 | > 1 | > 1 |  |  |  |  | C[C@H](Nc1ncnc(N)c1C#Cc1ccc(F)cn1)c1nc2cccc(C(F)F)c2c(=O)n1-c1cc(F)cc(F)c1 [Compound 77a, (S)-2-(1-((6-amino-5-((5-fluoropyridin-2-yl)ethynyl)pyrimidin-4-yl)amino)ethyl)-5-(difluoromethyl)-3-(3,5-difluorophenyl)quinazolin-4(3H)-one]

SMILES | IC50 (PI3Kα; bound given in uM) [µM] | IC50 (PI3Kδ; bound given in nM) [nM] | IC50 (PI3Kβ; bound given in uM) [µM] | IC50 (PI3Kγ; bound given in uM) [µM] | IC50 (PI3Kγ; bound given in nM) [µM] | IC50 (PI3Kα; bound given in nM) [µM] | IC50 (PI3Kβ; bound given in nM) [µM] | IC50 (PI3Kδ; bound given in uM) [nM]
C[C@H](Nc1ncnc(N)c1C#Cc1cnccn1)c1nc2cccc(Cl)c2c(=O)n1C1C[C@H]2CC[C@@H](C1)N2C (stereo partly drawn) [Compound 124a, 2-((S)-1-((6-amino-5-(pyrazin-2-ylethynyl)pyrimidin-4-yl)amino)ethyl)-5-chloro-3-((1R,5S)-8-methyl-8-azabicyclo[3.2.1]octan-3-yl)quinazolin-4(3H)-one] | > 1 | < 100 | > 1 | > 1 |  |  |  | 
